According to patent US5300433A, “Methods for the inactivation of viruses in viral-contaminated pharmaceutical compositions” (Rhone-Poulenc Rorer Pharmaceuticals Inc., priority 1991, dated 1994):
Where two headings read alike, the source gives them in different places.

What was measured:
HIV [1] = test system: HIV; set-up: species or system Human Immunodeficiency Virus
Source text: The Factor IX solution obtained is further contacted with HIV virus to obtain a final titer of 8-9 log10 of virus. […]. The solution is then dialyzed to remove the chemical disinfectant and then filtered through a membrane with an effective porosity equivalent to 100 KD molecular weight cut off.

HIV [2] = conditions: initial titer 9 log10
Protocol: A virus stock concentrate was prepared by infecting (CEM) cells at a multiplicity of infection of approximately 1. The cultures were established in 490 cm^2 Corning roller bottles containing approximately 450 ml of RPMI 1640 medium sufficient as is supplemented with 10% fetal bovine serum, penicillin, streptomycin, and 0.002 mg/ml polybrene. […] The total volume of the cultures was 1800 ml. […] The cultures were filtered through a 1.2 uM cellulose acetate filter. Virus was pelleted from the filtrate by centrifugation at 61,000×g for 4 hours at 4° C. The pelleted virus was resuspended with PBS (phosphate buffered saline solution).
Samples A, B and C were allowed to stand for 1 hour at 4° C. and sample D was allowed to stand for 1 hour at 25° C. Each sample was then centrifuged at 105,000×g for 90 minutes. The pellets were resuspended in 1 ml PBS and assayed for HIV by direct observation of the cytopathic effects of the virus on CEM cells. The assay method used in this example inherently rounds off titer to the nearest 0.5 log increment.

[3] = test system: Factor IX - deficient plasma; test: Factor IX activity by degree of correction in APTT time of Factor IX-deficient plasma; assay type: biochemical, human
Protocol: A purified Factor IX was obtained from PROTHAR® by chromatography on a monoclonal antibody affinity matrix specific to Factor IX. It contained approximately 0.065 milligrams of protein and 8 units of Factor IX activity per milliliter of solution. The purified preparation was ultrafiltered using an Amicon XM300 membrane and pressure of 5 p.s.i. The ultrafiltration proceeded very rapidly (about 2.5 ml/min). The filtrate was subsequently re-filtered through an Amicon XM100 membrane. The Factor IX activity in the final ultrafiltrate was 67%. Losses were not the result of Factor IX inactivation since specific activity was unaltered.
The product covered by this registered trademark of Armour Pharmaceutical is a stable lyophilized concentrate of human Factors II, VII, IX and X. It is prepared from pooled human plasma. Upon reconstitution it is a concentrated protein solution containing approximately 18 milligrams of total protein and 33 units of Factor IX activity per milliliter. The specific activity of Factor IX in the product ranges from 0 8-2.0 units per milligram of total protein.
In the first run, PROTHAR® was diluted 1:1 with 0.05M Tris-HCL, pH8.0. The resultant solution was ultrafiltered through an Amicon XM100 membrane (molecular weight cut-off of 100 K Daltons) using a pressure of 15 p.s.i. The ultrafiltration proceeded very slowly (about 0.25 ml/min), and the flow rate slowed as the protein inside the stirred cell became more concentrated. Only about 1% of the Factor IX activity found in the starting material appeared in the ultrafiltrate. […] Factor IX activity, in this and all other instances, is assayed by determining the degree of correction in APTT time of Factor IX - deficient plasma. J. H. Lenahan, Phillips and Phillips, Clin. Chem., Vol. 12, page 269 (1966).
Subsequent experiments were performed using an Amicon XM300 membrane (molecular weight cut-off of 300 K Daltons), pressures of 5 p.s.i., and reconstituted PROTHAR® dilutions of 1:6 and 1:10. Only about 17-19% of the Factor IX activity was found in the ultrafiltrate.

| Compound | titer of HIV infectivity (HIV [1]) | TOTAL LOG10 ID50 (found) (HIV [2]; Sample A: final NaSCN 1.5, 1 hour, 4° C.) | TOTAL LOG10 ID50 (found) (HIV [2]; Sample B: final NaSCN 2.0, 1 hour, 4° C.) | TOTAL LOG10 ID50 (found) (HIV [2]; Sample C: final NaSCN 3.0, no buffer, 1 hour, 4° C.) | TOTAL LOG10 ID50 (found) (HIV [2]; Sample D: final NaSCN 2.0, 1 hour, 25° C.) | HIV titer after dialysis and filtration (HIV [1]; 100 KD cut-off membrane, after NaSCN treatment) | F.IX recovered ([3]; Example 5, 100 KD molecular weight cut-off filtration) | Factor IX activity recovered ([3]; Example 6, dialysis and 100 KD cut-off filtration) | specific activity after ultrafiltration ([3]; affinity-purified Factor IX, XM300 then XM100 membrane) | Factor IX activity in the final ultrafiltrate ([3]; affinity-purified Factor IX, XM300 then XM100 membrane, 5 p.s.i.) | active Factor IX content, of the initial value ([3]; after 0.1% tri(n-butyl)phosphate and 1% Tween 80) | specific activity ([3]; pre-purified by chromatography on a monoclonal antibody affinity matrix) | Factor IX activity per milliliter of solution ([3]; purified Factor IX, approximately 0.065 milligrams of protein per milliliter) |
| --- | --- | --- | --- | --- | --- | --- | --- | --- | --- | --- | --- | --- | --- |
| N#CS [NaSCN, sodium thiocyanate] | undetectable levels | 1.0 LOG10 ID50 | 1.0 LOG10 ID50 | 1.0 LOG10 ID50 | 1.0 LOG10 ID50 |  |  |  |  |  |  |  |  |
| Factor IX: purified Factor IX obtained from PROTHAR by chromatography on a monoclonal antibody affinity matrix specific to Factor IX |  |  |  |  |  | further reduced | 80-100% | 80-100% | unaltered | 67% | > 80% | ≤ 190 units/mg of protein | ~8 units per milliliter |
